In patent US20080058211A1, “Method and Composition for the Modulation of Toxin Resistance in Plant Cells” (BOARD OF REGENTS, THE UNIVERSITY OF TEXAS SYSTEM, priority 2006, published 2008):
pEC50: −log10 of the molar value.

Experiments:
[1] = test system: root hairs of Arabidopsis thaliana; settings: cited from earlier work; for induction of membrane depolarization: applied nucleotide or phosphate
Arabidopsis pollen = test: in vitro pollen germination (Arabidopsis); format: cell-based, Arabidopsis thaliana
Protocol: Effects of Extracellular ATPγS and AMPαS on Pollen Germination. Arabidopsis pollen was germinated in pollen germination media (PGM) containing from about zero to about 400 μM ATPγS or AMPαS. […] The method of collection included vortexing flowers in PGM creating a homogenous suspension of pollen from tens to hundreds of flowers. This method caused the release of a small amount of ATP, 2-5 μM into the PGM (data not shown).
The nitric oxide signaling pathway mediates the inhibition of Arabidopsis pollen germination by ATPγS. To examine the downstream effectors involved in the inhibition of Arabidopsis pollen germination by ATPγS, different agonists and antagonists of the known nitric oxide signaling pathway were examined. […] Some of the nitric oxide signaling pathway agonists are water soluble while others are DMSO soluble.
Strains and Growth Conditions. For the experiments related to the nitric oxide-ATP signaling relationship, all Arabidopsis thaliana plants were ecotype Wassilewskija (WS), and Medicago truncatula plants were strain A17. All of the plants were grown in Metro-Mix 200 soil at 24° C. with constant light. In vitro Pollen Germination. Arabidopsis flowers in stage 12-14 (Smyth et al., 1990) or Medicago truncatula flowers in stage F3 (Firnhaber et al., 2005) were collected and vortexed for 1 min in pollen germination media (PGM) (0.01% boric acid, 1 mM MgSO4, 1 mM CaCl2, 1 mM Ca(NO3)2, 5 mM HEPES, 18% Sucrose pH 7.0). The supernatant containing the pollen was collected by pipet, and up to three rounds of vortexing of the same pollen could be pooled together. The pollen suspended in PGM was then added in 10-12 μL drops to 400 μL PGM+1% agar that had been spread as a thin film across a microscope slide. The slides and pollen were then placed into humidity chambers, petri dishes with water saturated kimwipes, and allowed to germinate at 26° C. overnight. Pictures of the germinated pollen were taken with a digital camera attached to a brightfield microscope at 40×. The digital images were scored for the percent of pollen germinated using the AlphaEase software from Alpha Innotech. Pollen with tubes that were shorter than the diameter of the pollen grain were not counted as germinated or non-germinated. The chemicals: ATPγS, AMPαS, N2, 2-O-dibutyrylguanosine 3′:5′-cyclic monophospohate (Dib cGMP), Sildenafil citrate (Viagra™, Pfizer), and 2-(N,N-Diethylamino)-diazenolate 2-oxide (NONOate) were added to the pollen/PGM suspension prior to adding the drops to the PGM+1% agar. The chemicals 1H-[1,2,4]Oxadiazolo[4,3,-a]quinoxalin-1-one (ODQ), N-[4-[1-(3-Aminopropyl)-2-hydroxy-2-nitrosohydrazino]butyl]-1,3-propanediamine (SNAP), and 3-isobutyl-1-methylxanthine (IBMX) were diluted in DMSO and added to the pollen/PGM suspension to a final concentration of DMSO of 0.1%.
For successful pollen germination it was critical for the plants to be healthy and growing in slightly dry soil. To achieve this, the plants were briefly watered 1-2 days before the experiment. As Johnson-Brousseau and McCormick note in their paper (Johnson-Brousseau and McCormick 2004), a solid base is necessary for best in vitro germination of Arabidopsis pollen. The pollen would not germinate in liquid PGM if not overlaid on a solid PGM+1% agar base, and the vortexing and deposition of the pollen/PGM suspension needed to take place in less than 30 minutes or germination rates dropped considerably.

Arabidopsis pollen tubes = test: pollen tube elongation; format: cell-based, Arabidopsis thaliana
Protocol: Arabidopsis pollen tube elongation is inhibited by ATPγS. As vesicles fuse to deliver membranes to the tip of elongating pollen tubes, ATP is likely to be released. So ATPγS and AMPαS were investigated for their ability to affect pollen tube elongation. After pollen tubes had begun to grow, from about 0 to about 250 μM ATPγS or AMPαS were added and the subsequent growth rate was determined.
Blocking the nitric oxide signaling pathway reverses the inhibition of Arabidopsis elongation by ATPγS. The inhibition of Arabidopsis pollen tube elongation was also mediated via the NO signaling pathway. Pollen tube growth rates were measured in 0.5% DMSO with and without 100 μM ATPγS.
Measurements of pollen tube elongation. Pollen was germinated as described above except 10 μL drops of pollen/PGM suspension were added to 60 μL of PGM+1% agar that had been deposited into a concavity slide. The pollen was allowed to germinate for 1-2 h, so that pollen tubes were clearly visible. Then 90 μL of PGM or PGM containing ATPγS, AMPαS, DMSO or ODQ was added and a photo was taken using a brightfield microscope at 40×. The coordinates of each photo were noted, so that the exact pollen tubes could be photographed 50-60 minutes later. Using Image J, the pollen tube lengths for individual pollen tubes were measured and a growth rate of μm/min was determined.

[2] = test system: [Ca^2+]cyt in excised roots; settings: cited from earlier work; for effect on [Ca2+]cyt: 10 mM CaCl2; for suppression of the response of roots to eATP: antagonist or channel blocker with eATP
Arabidopsis leaves = settings: cited from earlier work
Δ[Ca^2+]cyt = settings: co-application with OGA; cited from earlier work
roots = settings: in vivo; cited from earlier work
[3] = test system: nitric oxide levels in elongating Arabidopsis pollen tubes; test: nitric oxide in elongating pollen tubes, DAF-2D fluorescence; format: cell-based, Arabidopsis thaliana; settings: 125 μM
Protocol: Increased extracellular ATPγS increases nitric oxide production in elongating pollen tubes. In addition to using agonists and antagonists to indirectly study the relationship of eATPγS and nitric oxide, direct measurements of increases in nitric oxide after application of ATPγS and AMPαS were examined. Pollen grains have a high level of auto-fluorescence and the nitric oxide levels in elongating Arabidopsis pollen tubes were determined using DAF-2D, a fluorescent marker for the presence of nitric oxide that was dissolved in DMSO. Elongating pollen tubes were treated with DAF-2D alone or with ATPγS or AMPαS.
Measurements of NO in growing pollen tubes treated with ATPγS or AMPαS. Pollen was germinated as described for the pollen elongation measurements. After 1-2 hours when pollen tubes were clearly visible, 90 μL of PGM containing 5 μM 4,5-diaminofluorescein diacetate (DAF-2D, Molecular Probes) with or without ATPγS or AMPαS was added. […] Using Image J, the average fluorescence for the pollen tubes on each slide and each time point were determined. Since background fluorescence for each slide varied, three areas where no pollen tubes were present were averaged and subtracted from the pollen tube averages for each slide. Pollen tubes with and without nucleotides were compared to each other at similar time points to determine if there was a difference in fluorescence.

[Ca^2+]cyt = dextran-conjugated calcium green as reporter; cited from earlier work
[4] = test system: ATMEKK1, ATMPK3, ATPK19, ERF2, ERF3, ERF4 and ACS6 genes; settings: cited from earlier work
[5] = DMSO-soluble agonist plus 50 μM ATPγS, 0.1% DMSO
[6] = water-soluble agonist plus 50 μM ATPγS

Molecule: Nc1ccn([C@@H]2O[C@H](COP(=O)(O)OP(=O)(O)OP(=O)(O)O)[C@@H](O)[C@H]2O)c(=O)n1 [CTP]
- induction of membrane depolarization [1]: did not

Molecule: O=c1onc2cnc3ccccc3n12 [ODQ, 1H-[1,2,4]Oxadiazolo[4,3,-a]quinoxalin-1-one]
- reversal of inhibition of pollen germination (Arabidopsis pollen; 100 μM ODQ with 250 μM ATPγS): reverse the inhibition
- effect on pollen tube elongation alone (Arabidopsis pollen tubes; 100 μM ODQ alone, 0.5% DMSO): no effect
- reversal of inhibition of pollen tube elongation (Arabidopsis pollen tubes; 100 μM ODQ with 100 μM ATPγS, 0.5% DMSO): reversed the inhibition

Molecule: Cc1cn([C@H]2C[C@H](O)[C@@H](COP(=O)(O)OP(=O)(O)OP(=O)(O)O)O2)c(=O)[nH]c1=O [TTP]
- induction of membrane depolarization [1]: did not

Molecule: Nc1ncnc2c1ncn2[C@@H]1O[C@H](COP(=O)(O)O)[C@@H](O)[C@H]1O [AMP]
- induction of membrane depolarization [1]: did not
- effect on [Ca2+]cyt ([2]; excised roots): Neither AMP or phosphate induced any significant change
- effect on superoxide production (Arabidopsis leaves; equivalent concentrations delivered into the leaves): no significant effect

Molecule: Nc1ncnc2c1ncn2[C@@H]1O[C@H](COP(=O)(O)OP(O)(O)=S)[C@@H](O)[C@H]1O [ADPβS]
- agonist of pollen responses (Arabidopsis pollen): active agonist
- effect on Δ[Ca2+]cyt together with OGA (Δ[Ca^2+]cyt): similarly increased
- concentration that could inhibit the straight growth of roots (roots): 0.3 mM

Molecule: Nc1nc2c(ncn2[C@@H]2O[C@H](COP(=O)(O)OP(=O)(O)OP(=O)(O)O)[C@@H](O)[C@H]2O)c(=O)[nH]1 [GTP]
- induction of membrane depolarization [1]: induced large depolarizations

Molecule: phosphate
- induction of membrane depolarization [1]: no effect
- effect on [Ca2+]cyt ([2]; excised roots): Neither AMP or phosphate induced any significant change

Molecule: NCCCNCCCCN(CCCN)N(O)N=O [SNAP, N-[4-[1-(3-Aminopropyl)-2-hydroxy-2-nitrosohydrazino]butyl]-1,3-propanediamine]
- effect of added NO pathway agonist on pollen germination with ATPγS (Arabidopsis pollen; [5]): cause 50 μM ATPγS to inhibit pollen germination

Molecule: Nc1ncnc2c1ncn2[C@@H]1O[C@H](COP(O)(O)=S)[C@@H](O)[C@H]1O [AMPαS]
- agonist of pollen responses (Arabidopsis pollen): is not
- percent of germinated pollen (Arabidopsis pollen; PGM with about zero to about 400 μM): did not significantly change
- effect on pollen tube elongation rates (Arabidopsis pollen tubes; up to about 250 μM): no significant effect
- DAF-2D fluorescence [3]: did not significantly change

Molecule: Cc1nc(N=Nc2ccc(S(=O)(=O)O)cc2S(=O)(=O)O)c(COP(=O)(O)O)c(C=O)c1O [PPADS, pyridoxalphosphate-6-azophenyl-2′,4′-disulfonic acid]
- suppression of the response of roots to eATP [2]: completely suppressed
- blocking of ATP-induced superoxide production (Arabidopsis leaves; inhibitor treatment): block the response

Molecule: Nc1ncnc2c1ncn2[C@@H]1O[C@H](COP(=O)(O)OP(=O)(O)O)[C@@H](O)[C@H]1O [ADP]
- induction of membrane depolarization [1]: induced large depolarizations
- pEC50 ([1]; dose-response studies, read-out: half-maximal depolarization): ~5.00
- change in [Ca2+]cyt ([Ca^2+]cyt): no change
- abundance of mRNAs (MAP kinases, ERF2, ERF3, ERF4, ACS6) ([4]; application of 500 μM): induced an increased abundance
- concentration that could inhibit the straight growth of roots (roots): 3 mM

Molecule: CC(C)Cn1c(=O)n(C)c(=O)c2[nH]cnc21 [IBMX, 3-isobutyl-1-methylxanthine]
- effect of added NO pathway agonist on pollen germination with ATPγS (Arabidopsis pollen; [5]): cause 50 μM ATPγS to inhibit pollen germination

Molecule: [Gd] [gadolinium]
- suppression of the response of roots to eATP [2]: completely suppressed
- blocking of nucleotide-induced gene expression changes ([4]; cells pre-treated): partially blocked

Molecule: CCN(CC)[N+]([O-])=NO [NONOate, 2-(N,N-Diethylamino)-diazenolate 2-oxide]
- effect of added NO pathway agonist on pollen germination with ATPγS (Arabidopsis pollen; [6]): caused 50 μM ATPγS to become inhibitory

Molecule: Nc1ncnc2c1ncn2[C@@H]1O[C@H](COP(O)(O)=S)[C@@H](O)[C@H]1O [AMPS]
- effect on Δ[Ca2+]cyt together with OGA (Δ[Ca^2+]cyt): significant inhibitory effect

Molecule: CCCC(=O)Nc1nc2c(ncn2C2OC3COP(=O)([O-])OC3C2OC(=O)CCC)c(=O)[nH]1.[Na+] (stereo not drawn) [DibcGMP, N2,2-O-dibutyrylguanosine 3′:5′-cyclic monophospohate]
- effect of added NO pathway agonist on pollen germination with ATPγS (Arabidopsis pollen; [6]): caused 50 μM ATPγS to become inhibitory

Molecule: O=c1ccn([C@@H]2O[C@H](COP(=O)(O)OP(=O)(O)OP(=O)(O)O)[C@@H](O)[C@H]2O)c(=O)[nH]1 [UTP]
- concentrations at which ineffective on [Ca2+]cyt ([2]; excised roots): below 100 μM
